Results published in ChEMBL document CHEMBL1777668, “Structure-activity relationship of cyclic thiacarbocyanine tau aggregation inhibitors” (Bioorg Med Chem Lett, 2011).
The source made the active and inactive calls. The calls are words filed in the database; no cut-off is given here.

Tests used:
Homo sapiens [1] = organism: Homo sapiens; assay: Inhibition of octadecyl sulfate-induced recombinant human tau 2N4R aggregation at 1 uM by electron microscopy
Homo sapiens [2] = organism: Homo sapiens; assay: Inhibition of octadecyl sulfate-induced recombinant human tau 2N4R aggregation at 10 uM by electron microscopy

| SMILES | inhibition (Homo sapiens [1]) | inhibition (Homo sapiens [2]) |
| --- | --- | --- |
| C1=C2\Sc3ccccc3N2CCCCCCCC[n+]2c(sc3ccccc32)/C=C/C=C2\Sc3ccccc3N2CCCCCCCC[n+]2c(sc3ccccc32)/C=C/1 |  | Active |
| C1=C2\Sc3ccccc3N2CCCCCCC[n+]2c(sc3ccccc32)/C=C/C=C2\Sc3ccccc3N2CCCCCCC[n+]2c(sc3ccccc32)/C=C/1 |  | Active |
| C1=C2\Sc3ccccc3N2CCCCCC[n+]2c(sc3ccccc32)/C=C/C=C2\Sc3ccccc3N2CCCCCC[n+]2c(sc3ccccc32)/C=C/1 |  | Active |

Results, then the compound that gave them:

| inhibition (Homo sapiens [1]) | inhibition (Homo sapiens [2]) | SMILES |
| --- | --- | --- |
| inactive | Active | C1=C2\Sc3ccccc3N2CCC[n+]2c(sc3ccccc32)/C=C/C=C2\Sc3ccccc3N2CCC[n+]2c(sc3ccccc32)/C=C/1 |
|  | Active | C1=C2\Sc3ccccc3N2CCCCC[n+]2c(sc3ccccc32)/C=C/C=C2\Sc3ccccc3N2CCCCC[n+]2c(sc3ccccc32)/C=C/1 |
| Active | Active | C1=C2\Sc3ccccc3N2CCCC[n+]2c(sc3ccccc32)/C=C/C=C2\Sc3ccccc3N2CCCC[n+]2c(sc3ccccc32)/C=C/1 |
